The test system of one series is MDA-MB-231 (ER-). Kind of series: Antiproliferative activity assay. The series is classed as cell-based, human. The conditions noted are these: read-out: IC50 ± SEM, MDA-MB-231 (ER−).
The next series concerns HaCaT. The series is described as follows: Antiproliferative activity assay. The series is classed as cell-based, human. The conditions noted are these: for IC50: read-out: IC50 ± SEM, HaCaT, 48 h.
For series [1], the target named is T1, CYP3A4 (Homo sapiens, UniProt P08684). Particulars: Soret band blue shift, recombinant CYP3A4.
T1 sequence (P08684 whole entry): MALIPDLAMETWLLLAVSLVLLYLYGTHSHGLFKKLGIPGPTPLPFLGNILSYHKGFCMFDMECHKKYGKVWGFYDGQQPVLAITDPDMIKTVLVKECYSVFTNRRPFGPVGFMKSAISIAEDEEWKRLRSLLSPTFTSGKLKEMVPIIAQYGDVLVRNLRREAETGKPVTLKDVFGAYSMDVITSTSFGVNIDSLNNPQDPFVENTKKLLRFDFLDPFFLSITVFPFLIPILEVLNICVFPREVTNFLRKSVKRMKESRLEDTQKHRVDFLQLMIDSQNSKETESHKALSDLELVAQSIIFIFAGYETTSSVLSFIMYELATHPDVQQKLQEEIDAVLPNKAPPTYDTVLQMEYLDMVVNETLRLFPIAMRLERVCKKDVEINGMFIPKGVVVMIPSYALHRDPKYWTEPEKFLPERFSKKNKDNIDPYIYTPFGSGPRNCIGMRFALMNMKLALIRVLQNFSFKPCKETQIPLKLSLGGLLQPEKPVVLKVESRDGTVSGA
Another series deals with LNCaP (AR + ). The series is described as follows: Antiproliferative activity assay. The series is classed as cell-based, human. Particulars: read-out: IC50 ± SEM, LNCaP (AR + ); prostate adenocarcinoma cells, 48 h, SRB.
A further series concerns M21. The series is described as follows: Antiproliferative activity assay. The series is classed as cell-based, human. The conditions noted are these: read-out: IC50 ± SEM, M21.
The next series deals with T84 wt. Kind of series: Antiproliferative activity assay. The series is classed as cell-based, human. The conditions noted are these: for IC50: read-out: IC50 ± SEM, T84 wt, 48 h.
For a further series, the system named is PC3 (AR-). The series is described as follows: Antiproliferative activity assay. The series is classed as cell-based, human. Particulars: for IC50: read-out: IC50 ± SEM, PC3 (AR−), 48 h.
The next series has as its system HT-29. Kind of series: Antiproliferative activity assay. Particulars: read-out: IC50 ± SEM, HT-29. The series is classed as cell-based, human.
A further series has as its system DU145 (AR-). The series is described as follows: Antiproliferative activity assay. The series is classed as cell-based, human. The conditions noted are these: for IC50: read-out: IC50 ± SEM, DU145 (AR−).
In series [2] the target is T1, CYP3A4. Particulars: read-out: IC50, BFC debenzylation activity of CYP3A4; soluble reconstituted system, 37 °C, BFC substrate.
In another series the test system is MCF7 (ER + ). The series is described as follows: Antiproliferative activity assay. The series is classed as cell-based, human. The conditions noted are these: read-out: IC50 ± SEM, MCF7 (ER + ).
Setting [3] is: breast carcinoma cells, 48 h, SRB.
The mark [4] stands for this setting: at the maximal concentration tested (5 μM).
The mark [5] stands for this setting: at the maximum concentration tested (5 μM).

Usually IC50 stands for the concentration that gives 50% inhibition.

Where two headings read alike, the source gives them in different places.

Regarding `C[C@]12CC[C@H]3[C@@H]([C@H](C/C=C/Cn4cc([C@]5(O)CC[C@H]6[C@@H]7CCc8cc(O)ccc8[C@H]7CC[C@@]65C)nn4)CC4=CC(=O)CC[C@@]43C)[C@@H]1CC[C@@H]2O` [Compound 1, (E)-17β-hydroxy-7α-{4-[4-(estradiol-17α-yl)-[1,2,3]triazol-1-yl]-but-2-enyl}−4-androsten-3-one], the IC50 is over 5 µM in the series with MDA-MB-231 (ER-) (setting [3]); over 5 µM in the series on HaCaT (normal immortalized human keratinocytes, SRB); over 5 µM in the series with LNCaP (AR + ); 2.3 ± 0.1 µM with M21 (melanoma cells, 48 h, SRB); over 5 µM in the series with T84 wt (colon adenocarcinoma cells, SRB); over 5 µM with PC3 (AR-) (prostate adenocarcinoma cells, SRB). In addition, the IC50 in the series with HT-29 (colon carcinoma cells, 48 h, SRB) is 3.5 ± 0.1 µM; with DU145 (AR-) (prostate adenocarcinoma cells, 48 h, SRB) it was over 5 µM; on CYP3A4 [2], over 5 µM; with MCF7 (ER + ) (setting [3]), 4.9 ± 0.4 µM. Further, the “antiproliferative activity on HaCaT cells” value with HaCaT (setting [4]) was “inactive”. For the same molecule, on CYP3A4 [1], the high-spin shift was 23%. Further, the “antiproliferative activity on T84 wt cells” value in the series with T84 wt (setting [4]) was “inactive”. For the same molecule, the “antiproliferative effect on PC3 (AR-) cells” value in the series with PC3 (AR-) (setting [5]) is “no effect”. In the series on DU145 (AR-) (setting [5]), the “antiproliferative effect on DU145 (AR-) cells” value was “no effect”.
In the case of `CC(O)(CS(=O)(=O)c1ccc(F)cc1)C(=O)Nc1ccc(C#N)c(C(F)(F)F)c1` (centres unmarked) [Bicalutamide, bicalutamide, reference compound], the IC50 came to 95 ± 5 µM in the series on HaCaT (Homo sapiens, HaCaT); 49 ± 1 µM in the series on M21 (Homo sapiens, M21, 48 h); 56 ± 2 µM in the series on T84 wt (Homo sapiens); 62 ± 3 µM with PC3 (AR-) (Homo sapiens, PC3/AR); 42 ± 2 µM in the series on HT-29 (Homo sapiens, HT-29, 48 h); 52 ± 1 µM with DU145 (AR-) (Homo sapiens, DU-145, 48 h).
In the case of `CC/C(=C(\c1ccc(O)cc1)c1ccc(OCCN(C)C)cc1)c1ccccc1` [Compound 4-OHT, 4-hydroxytamoxifen, reference compound], the IC50 in the series with MDA-MB-231 (ER-) (Homo sapiens, MDA-MB-231, 48 h) was 7 ± 1 µM; in the series on HaCaT (Homo sapiens, HaCaT), 10.4 ± 0.6 µM; in the series on M21 (Homo sapiens, M21, 48 h), 4.2 ± 0.2 µM; with T84 wt (Homo sapiens) it was 6.9 ± 0.3 µM; in the series with PC3 (AR-) (Homo sapiens, PC3/AR), 13 ± 1 µM; in the series on HT-29 (Homo sapiens, HT-29, 48 h) it was 0.9 ± 0.2 µM. In addition, the IC50 worked out at 13 ± 1 µM in the series with DU145 (AR-) (Homo sapiens, DU-145, 48 h) and 0.013 ± 0.005 µM in the series with MCF7 (ER + ) (Homo sapiens, MCF7, 48 h).

Source of the values: paper PMC11299231 (Steroids, 2024).
